Like-named read-outs stand apart in the source and are kept apart here.
Assays:
[1] = on the order of; cited from earlier work
[2] = Protocol: A blank solution with PBS only was also prepared.
8 mm Liberte WH stents were placed in the wells of a 48-well polystyrene plate and 240 μl of each peptide concentration (including the blank) was then added to each well. The plates were then incubated for at least 1 hr at room temperature (RT) with gentle shaking (100 rpm) to allow for binding to occur. Excess peptide solution was removed and discard using a micropipette.
The stents were then washed 3 times with 1.5 ml PBS-Tween, with approximately 30 sec of shaking at 150 rpm between washes. 1.5 ml of 1% bovine serum albumin (BSA) in PBS (blocking solution) was then added to each stent and incubated for 1 hr at RT with gentle shaking (100 rpm) to allow for blocking to occur. After 1 hr, excess blocking solution was removed and discarded with a micropipette. The stent was then washed 3 times with 1.5 ml PBS-Tween using the wash method described above.
300 μl of Streptavidin-AP (alkaline phosphatase) solution was added to each stent at 1/1000 in TBS+1% BSA and incubated for 30 min at room temperature with gentle shaking (100 rpm). Excess Streptavidin solution was then removed and discarded. The stents were then washed 2 times with 1.5 ml PBS-Tween and then transferred to a set of new wells on the same plate using tweezers. Once the stents were moved, they were then washed once more with 1.5 ml PBS-Tween. 300 μl of the chromogen p-nitrophenyl phosphate (PNPP) was added to each stent in the 48 well plate. The plate was then placed on the shaker platform and incubated for 5 minutes at 100 rpm to allow color development to occur. 10 μl of sodium hydroxide (NaOH) was then added to the wells of a 96 well tissue culture plate. To stop the color development, 100 μl of the solution in each stent containing well was transferred to a well containing NaOH in the 96 well plate.
Optical density (OD) was determined by reading the 96 well plate in a plate reader (Spectramax Plus, Molecular Devices) at 405 nm in endpoint mode. The measured OD for the blank was subtracted from the ODs for all other solutions. The resulting ODs were plotted (y-axis) vs. concentration (μM) (log x-axis).
The OD at 5 min (405 nm) was measured at 1 hr, 4 hr and 24 hrs as described above.
The OD at 5 min (405 nm) was measured and the EC50 was determined as described above.

[3] = Langmuir isotherm, quartz crystal microbalance with dissipation (QCM-D); format: binding
Protocol: Stainless Steel Quartz Crystals (Q-Sense, QSX 304) were cleaned with a UV/Ozone treatment (Bioforce, UV […], Model No. […] The crystals were then immersed in a 2% sodium dodecyl sulfate (SDS) (MPI, Product No. 811036) in dH2O solution for 5 minutes, washed thoroughly with dH2O, N2 dried, and UV/Ozone treated for an additional 10 minutes. Surface Characterization: The QCM-D measurements (Q-Sense E4) were made with a solution flow rate of 100 μL per minute. The experiment was temperature controlled at 25° C. In the experiments, four samples were tested at one time using the QCM-D. Each experiment included running PBS for approximately 10 minutes to establish a stable baseline. The peptide solutions were then added at various concentrations until the change in frequency was 2 Hz per 30 minutes or less. The final step was to wash with PBS for 30 minutes or until the change in frequency was 2 Hz per 30 minutes or less. For analysis purposes (Sauerbrey model, Q-Tools), generally the third overtone was used from each sample.

[4] = system: human coronary artery endothelial cells (HCAEC); assay: HCAEC migration on coated stainless steel strips; format: cell-based; conditions: strips pre-coated with 10 μM peptide; 48 hours; uncoated stainless steel normalized to 1; p<0.01
Excerpt: Migration and proliferation of endothelial cells on biomaterials can impact the rates of reendothelization and angiogenesis, which can be important during the development and success of implantable medical devices. In this experiment, the effect of a surface-binding cell adhesion polypeptide on the motility of human coronary artery endothelial cells (HCAEC) on a stainless steel substrate was examined in vitro. The surface-binding cell adhesion polypeptide used in this example included DOPA as a surface binding moiety, a (ALA-Aib)3 linker, and the recognition sequence for laminin receptors (YIGSR) as the cell adhesion polypeptide [(DOPA)2-(ALA-Aib)3-YIGSR-OH, hereinafter PEPTIDE-1] (synthesized at the MGH Peptide/Protein Core Facility, Harvard Medical School, Boston, Mass.).
Human coronary artery endothelial cells (HCAEC, available from Cell Applications, Inc., San Diego, Calif.) were used in this study. The substrates were sterile stainless steel strips [3.5″×0.308″×0.031″] or sterile stainless steel strips coated with PEPTIDE-1.
Collagen gels were prepared using the following protocol: One 10 mg vial of high concentration (HC) Type I collagen (Rat tail, from BD Biosciences, San Jose, Calif.) was diluted with distilled sterile H2O to a final volume of 38 ml and mixed thoroughly without introducing bubbles (by pipetting up and down). […]

For `N[C@@H](Cc1ccc(O)c(O)c1)C(=O)O` [DOPA, 3,4 dihydroxyphenylalanine], the binding constant [1] is listed as ~10^16.

In the case of “(DOPA)2-(ALA-Aib)3-RIGSY-(Biotin)-OH [PEPTIDE-2]”, the EC50 ([2]; incubation time study, 1 hr) is reported as 0.31 µM, the EC50 ([2]; incubation time study, 4 hr) is reported as 0.3 µM and the EC50 ([2]; incubation time study, 24 hr) is reported as 0.27 µM. For the same molecule, the EC50 ([2]; read-out: half-maximal concentration (EC50), concentration range study, coating 1 hour at room temperature) was about 0.37 µM and the “affinity for stainless steel in comparison to BSA” value ([3]; greater affinity than non-specific protein BSA) was “approx. 3 orders of magnitude”.

For (DOPA)2-(ALA-Aib)3-YIGSR-OH [PEPTIDE-1], the “HCAEC migration compared to stainless steel alone” value [4] was 1.7 fold.

Work on (Dopa)2-(Ala-Aib)3-RIGSY-OH [PEPTIDE-3] yielded an EC50 ([3]; QCM-D, 25° C.) of 0.28 µM and a Kd ([3]; QCM-D, 25° C., Langmuir isotherm fit) of 0.26 µM.

With “bovine serum albumin [BSA, reference compound]” the EC50 ([3]; QCM-D, 25° C.) was at least 100 µM.
